According to patent publication US6630583B1, “Antibiotics and methods of using the same” (priority 1998, dated 2003):

Legend:
[1] = test system: T4 strain (which encodes the T4 type Vex2 receptor); experiment: Killing in vitro by synthetic R6 peptide; format: cell-based, pneumococcus; conditions: synthetic R6 peptide added to a T4 strain
Source text: Clinical isolates were sequenced and a predominance of the R6 type amino acid sequence for the P27 peptide and of the Type 4 amino acid sequence for the Vex2 transporter was found. Out of fourteen isolates that were screened for Vex2, twelve had the Type 4 allele and only two had the R6 type allele. Eleven of the fourteen isolates were also screened for the P27 peptide. Nine were of the R6 type P27 allele (SEQ ID NO:60) and only two were of the Type 4 P27 allele. Thus, most of the isolates examined encoded an R6 type peptide (SEQ ID NO:60) and a T4 type Vex transporter. Importantly, two of the three tolerant strains encoded either the R6 type P27 peptide and the R6 type Vex2, or alternatively, the T4 type P27 peptide and the T4 type Vex2 receptor indicating an over-representation of these “matching” combinations in tolerant strains. Furthermore, isolates encoding a mix of R6/T4 type P27 peptide/Vex2 receptor were more susceptible to being killed in vitro, i.e. when the synthetic R6 peptide was added to a T4 strain (which encodes the T4 type Vex2 receptor) there was about 10-20% more bioactivity. Thus, genotype combinations comprising the R6 type P27 peptide and the R6 type Vex2 receptor or the T4 type P27 peptide and the T4 type Vex2 receptor may facilitate the tolerant phenotype. […]

[2] = test system: pneumococcal strain R6; experiment: Cell growth curves (OD 620 nm) and viability of R6 with peptide; format: cell-based, Streptococcus pneumoniae; conditions: peptides at 100 μM added to growing R6 at OD 620 nm of 0.1
Method: (§1) Cell growth curves were performed in the presence or absence of the test reagents as specified. In short, samples were prepared as follows: 1 ml of a pneumococcus culture was placed into 10 ml of prewarmed Semisynthetic (C+Y) medium. The optical density (OD) of the bacteria was monitored at 620 nm until an OD of approximately 0.1 was reached. At this point the test reagents were administered to the samples. The cells were cultured for up to 11 hours at 37° Celsius, and the OD at 620 nm was monitored every hour. A decrease in OD 620 is indicative of cell lysis, an increase is indicative of bacterial growth. No change in optical density indicates growth inhibition.
To characterize the antibacterial activity of the peptide, pneumococcal strain R6 which is sensitive to penicillin was exposed to 0.1 mM of the peptide having the amino acid sequence of SEQ ID NO:2 at an optical density of 0.01 (bacterial density of 3×10^6 cfu/ml). Bacterial growth as measured by optical density was followed for 11 hours and viability was assessed by plating on blood agar. […] Four hours after the start of the experiment, the control strain grew from 3×10^6 to 1.2×10^7 cfu/ml. In contrast, four hours after addition of the peptide, the viable bacterial number decreased from 3×10^6 to 3×10^4 CFU/ml (10^3-fold lower than the control).
The fact that the peptide is active in the range below 1 μg/ml places the potency of its antibacterial effect in the same range as conventional antibiotics.
R6 with no peptide was the control and underwent exponential growth. […] This enhanced activity may result from an improvement in folding of the peptide or greater access to the bacterial target.

[3] = test system: parent strain R6; experiment: Antimicrobial peptide sensitivity test (growth, viability); format: cell-based, S. pneumoniae
Method: (§2) FIGS. 15A-15C show the effect of the synthetic peptide homolog P27 on induced growth inhibition. […] Cultures were in the early exponential phase of growth (10^6 cfu/ml) when treated with the synthetic peptide, P27. FIG. 15B is a block diagram showing the viability counts (after one hour) of parent strain R6, and loss of function mutants vncS, vncR, vex1, vex3, following the addition of 0.1 mM P27. R6 without the peptide is the positive control. […] Experimental conditions are the same as in FIG. 15A.
Cultures in the early exponential phase (10^6 cfu/ml) were treated with 0.1 mM P27 (*), 14-mer C-terminal peptide (□), 14-mer N-terminal peptide (Δ), a truncate lacking the 5C-terminal amino acids (◯) or an alternative peptide (⋄).
(§3) Anitmicrobial peptide sensitivity tests: Survival and autolysis rates in the presence of antimicrobial peptides were determined by exposing the parent strain R6 and the vncS deficient mutant to different concentrations (0.05 to 200 μM) of P27 or cecropin B (American Peptide Company, Sunnyvale, Calif., USA) at an OD620nm 0.05 (10^6 cfu/ml). For the disk diffusion assay, agar plates were seeded with a lawn of S. pneumoniae, Enterococcus faecalis, E. faecium, Streptococcus agalactiae, S. pyogenes or Staphylococcus aureus. The plates were incubated for 12 hours at 37° C. with a disk soaked with the synthetic P27 (2 mM). The size of the halo was determined with a ruler.
To determine the biological effect of P27, cultures of the parent strain R6 at an OD620nm of 0.1 were exposed to 0.1 mM of the synthetic peptide homolog P27 having the amino acid sequence of SEQ ID NO:44. […] This behavior is distinct from all other antibiotics described to date, which have a clear cut MIC.

[4] = test system: antibiotic sensitive and LytA deficient bacteria; experiment: Potentiation of the bactericidal effect of penicillin; format: cell-based, S. pneumoniae
[5] = test system: leucine deprived R6 cells; experiment: Stringent response: lysis after leucine deprivation; format: cell-based, S. pneumoniae; conditions: 10×MIC of penicillin or vancomycin, 0.2 mM P27, or combination
Method: P27 and the stringent response mechanism: The stringent response is believed to prevent the death pathway. To clarify the relationship of the stringent response to P27 activity, protein synthesis of R6 was inhibited by leucine deprivation and the effect of P27 was monitored (FIG. 19). […] The minimum concentration of penicillin required to cause penicillin dependent autolysis was equal to its MIC ([…]).

[6] = test system: clinical pneumococcal isolates, which had no defect in the histidine/kinase VncS; experiment: Growth of clinical isolates exposed to P27; format: cell-based, pneumococcus; conditions: 0.1 mM of P27
Method: To investigate if the peptide P27 was not only capable of triggering different death pathways but was in fact, obligatory, a mutant deficient in P27 was investigated for antibiotic tolerance. […] This was confirmed by Western blot analysis. After addition of 10×MIC of vancomycin, the vexcp3 mutant underwent less than 2 log kill in 4 hours in contrast to 4 log kill of the wild type (FIG. 18A). […] To exclude the possibility that tolerance of the vexp3 mutant resulted from changes in either the expression or intrinsic activity of the autolysin LytA, Western blot analysis of LytA of the vexp3 mutant was performed. […] However, exogenous autolysin from vexp3 mutant was as efficient as that from wild type pneumococcus at reconstitution of lysis of the autolysin deficient strain Lyt-4-4 (FIG. 18C). […] To investigate if this phenomenon was restricted to mutations in VncS or rather to the antibiotic tolerant phenotype, clinical pneumococcal isolates, which had no defect in the histidine/kinase VncS (verified by sequencing), were exposed to 0.1 mM of P27. […] This supports the conclusion that VncS might function as a receptor for P27.

[7] = test system: autolysin deficient strain Lyt 4-4; experiment: Growth and killing of autolysin deficient strain; format: cell-based, Streptococcus pneumoniae; conditions: compared with R6
Method: The addition of the additives were made at time “0” hours. The strain of bacteria cultured was the Lyt-4-4 strain of Streptococcus pneumoniae which harbors a mutation leading to the loss of LytA activity. The peptide having the amino acid sequence of SEQ ID NO:2 was added as indicated at a concentration of 0.1 mM. Lyt-4-4 lacks active autolysin LytA and is therefore tolerant to penicillin treatment.
as §1
This antibacterial effect was also demonstrable in bacteria mutated so as to prevent autolysis by point mutation in the autolysin, as in the autolysin deficient strain Lyt 4-4. […]

[8] = test system: clinical pneumococcal isolate; experiment: Rabbit model of pneumococcal meningitis; format: in vivo; conditions: single intrathecal injection of 5 mg/kg, over 8 hours
Method: Rabbit model of pneumococcal meningitis: Pneumococcal meningitis was established according to a standard protocol [Tauber and Zwahlen, Methods Enzymol., 235:92-106 (1994)]. After withdrawal of CSF (300 μl), 10^4 bacteria of a vancomycin tolerant clinical serotype 23 isolate (RNET05) in 200 μl saline was introduced intracisternally in all animals. The rabbits in group one received no treatment, group two received vancomycin (60 mg/kg) six hours after infection: group three received a combination of vancomycin (60 mg/kg) and P27 (4 mg/kg) six hours after infection and group four received P27 (4 mg/kg) six hours after infection. At six hour intervals. CSF (200 μl) was withdrawn and tested for bacterial and leukocyte density.

[9] = test system: vncS deficient mutant; experiment: Antimicrobial peptide sensitivity test (growth, viability); format: cell-based, S. pneumoniae; conditions: 0.1 mM P27
Method: as §2, §3

[10] = test system: different streptococcal species and Staphylococcus aureus; experiment: Disk diffusion assay; format: cell-based; conditions: disk soaked with synthetic P27 (2 mM)
Method: as §3

[11] = test system: Lyt 4-4; experiment: Loss of chain formation (morphology); format: cell-based, Streptococcus pneumoniae; conditions: Lyt-4-4, P27 added
Source text: Loss of chain formation is a measure of antibacterial activity independent of autolysin.
Strains of pneumococcus that are tolerant to penicillin, such as Lyt 4-4, grow in long chains as compared to the diplococcal morphology of wild type pneumococci. FIG. 6A illustrates these chains, which extend to 30-50 bacteria in length.
P27 is capable of triggering different autolytic pathways: To identify the relationship between P27 and the activation of the autolysin LytA, the bactericidal effect of the peptide on the pneumococcal mutant Lyt-4-4 (which is deficient in the major autolysin), was investigated. […] Compared to the diplococcal morphology of wild type pneumococci, pneumococci lacking an active autolysin grow in long chains.

In the case of “MRKEFHNVLSSDQLLTDKRPARDYNRK (Streptococcus Pneumoniae) [synthetic R6 peptide]”, the “more bioactivity (killing in vitro)” value [1] is reported as 10-20%.
In the case of “MRKEFHNVLSSGQLLADKRPARDYNRK (listed as Streptococcus pneumoniae) [Peptide P27]”, the “ability to inhibit R6 growth” value [2] is reported as “the same effect”, the “growth of R6” value ([3]; 0.1 mM P27, OD620nm of 0.1) is reported as “potent growth inhibition” and the “concentrations at which a substantial loss of viability was demonstrated” value ([3]; R6) is reported as “greater than 0.05 mM”. The inhibition of growth ([3]; R6, 50 nM P27) was “marginal”, the “dose dependence of the extent of growth inhibition” value ([3]; R6, 50 nM to 0.2 mM) was “dose dependent” and the loss of viability ([3]; R6, 0.1 mM P27) was 2 log units. The inhibition of growth ([3]; R6, 0.2 mM P27) was “complete growth arrest”, the “effect on bactericidal effect of penicillin” value [4] was “potentiates the bactericidal effect of penicillin” and the “lysis of R6 under leucine deprivation” value [5] was “neither the addition of 10×the MIC of penicillin or vancomycin nor the addition of 0.2 mM P27 resulted in lysis”. The “growth of clinical isolates” value [6] was “clear reduction in growth”, the “bactericidal effect on Lyt-4-4” value [7] was “still killed by P27 but not as efficiently as R6” and the “kill of a clinical pneumococcal isolate” value [8] was “greater than 2 log”. The “growth inhibition or cell death” value [9] was “did not result in growth inhibition or even cell death”, the “antibacterial activity against other species” value [10] was “did not show antibacterial activity” and the chain formation [11] was “reversion of the chains to diplococci”.
